US9259396B2, “Method of preparing soy isoflavone nanoparticles by precipitation with compressed antisolvent (PCA) using a supercritical fluid” (Nano and Advanced Materials Institute Limited, priority 2012, dated 2016)

Assays:
[1] = Dissolution rate study in a dissolution medium; format: physicochemical; conditions: over a period of 20 minutes
Protocol: FIG. 9 is dissolution profiles of raw genistein versus PCA processed genistein under different pressures of 70 bar (Run 6) and 100 bar (Run 4).
46% weight percentage of the processed genistein from Run 4 (100 bar) is dissolved in a dissolution medium while only 23% of the unprocessed genistein is dissolved over a period of 20 minutes. This 2-fold increase in dissolution rate can be credited to the reduction in particle size resulting in an increase in total surface area. However, the dissolution rate for particles which are obtained at 70 bar with smaller particles (Run 6) is slower than that of particles obtained at 100 bar (Run 4).

[2] = Saturation concentration of genistein in acetone; format: physicochemical; conditions: room temperature and atmospheric pressure
Protocol: As used herein, the concentration of genistein means the concentration of the genistein dissolved in an organic solvent such as acetone at room temperature and atmospheric pressure. The saturation point of genistein concentration dissolved in acetone at room temperature and atmospheric pressure is 4 mg/mL.

In the case of O=c1c(-c2ccc(O)cc2)coc2cc(O)cc(O)c12 [unprocessed genistein, genistein], the “weight percentage dissolved in a dissolution medium” value [1] is reported as 23% and the “saturation point of genistein concentration dissolved in acetone” value [2] is reported as 4 mg/mL.
